The values that follow come from PMC3163566, “Combined analysis of transcriptome and metabolite data reveals extensive differences between black and brown nearly-isogenic soybean (Glycine max) seed coats enabling the identification of pigment isogenes” (BMC Genomics, 2011).

Assay [1] addresses T1, OMT5 (Glycine max, UniProt F2YBA9).
T1 construct: full-length CDS, N-terminal His6 tag (pET-14b), E. coli BL21(DE3) pLysS, IMAC purified; primers based on mRNA BT098523
The assay can be described thus: HPLC-DAD and HPLC-MS/MS product detection. The assay is classed as biochemical. The conditions noted are these: methyl acceptor; SAM 100 uM, MgCl2 150 uM, Tris pH 7.5, 35 °C, 1 h; product peonidin-3-O-glucoside.

The target of assay [2] is T2, UGT78K2 (Glycine max, UniProt G0WMC8).
T2 construct: full-length CDS, N-terminal His6 tag (pET-14b), E. coli BL21(DE3) pLysS, IMAC purified
T2 sequence (G0WMC8 1-447): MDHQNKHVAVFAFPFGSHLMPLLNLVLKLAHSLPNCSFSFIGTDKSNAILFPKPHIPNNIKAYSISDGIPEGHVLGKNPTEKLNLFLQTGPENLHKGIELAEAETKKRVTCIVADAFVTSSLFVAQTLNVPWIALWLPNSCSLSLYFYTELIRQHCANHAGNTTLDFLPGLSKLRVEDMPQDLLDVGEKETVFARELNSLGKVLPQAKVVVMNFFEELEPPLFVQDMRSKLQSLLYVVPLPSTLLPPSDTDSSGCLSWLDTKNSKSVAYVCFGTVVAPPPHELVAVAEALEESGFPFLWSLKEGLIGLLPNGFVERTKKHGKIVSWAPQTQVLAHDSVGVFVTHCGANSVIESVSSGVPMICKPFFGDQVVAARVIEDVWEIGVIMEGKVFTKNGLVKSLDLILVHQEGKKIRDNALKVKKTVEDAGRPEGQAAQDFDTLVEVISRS
The assay can be described thus: HPLC-DAD and HPLC-MS/MS product detection. Format: biochemical. The settings on record: glucose acceptor; 5 mM UDP-glucose; 30 °C, 5 min; product cyanidin-3-O-glucoside.

T1 sequence (F2YBA9 1-248): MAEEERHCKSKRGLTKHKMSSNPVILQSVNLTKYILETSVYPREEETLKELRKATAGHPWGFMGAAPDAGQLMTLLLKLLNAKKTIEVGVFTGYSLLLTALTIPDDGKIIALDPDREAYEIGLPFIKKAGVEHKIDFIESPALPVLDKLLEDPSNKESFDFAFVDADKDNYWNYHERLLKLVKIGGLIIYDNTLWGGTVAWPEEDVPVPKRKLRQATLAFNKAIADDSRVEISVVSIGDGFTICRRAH

As to `OC[C@H]1O[C@@H](Oc2cc3c(O)cc(O)cc3[o+]c2-c2ccc(O)c(O)c2)[C@H](O)[C@@H](O)[C@@H]1O` [cyanidin-3-O-glucoside], in assay [1], the “HPLC-DAD and HPLC-MS/MS product detection” value was “methyl donor and cyanidin-3-O-glucoside as the acceptor, the recombinant enzyme transferred a methyl group”.
For the molecule `Oc1cc(O)c2cc(O)c(-c3ccc(O)c(O)c3)[o+]c2c1` [cyanidin], the “HPLC-DAD and HPLC-MS/MS product detection” value in assay [2] was “the recombinant enzyme transferred glucose to the 3-position of cyanidin to form cyanidin-3-O-glucoside”.
